pIC50: −log10 of the molar value.

This passage reports IC50 results from BindingDB's records for patent US11299480 (University of Hawaii, 2022).

The assay has as its target Signal transducer and activator of transcription 3 (Homo sapiens, UniProt P40763). In words: In Vitro Assay. Here is the method: Except where indicated, nuclear extracts were pre-incubated with compound for 30 min at room temperature prior to incubation with the radiolabeled probe for 30 min at 30° C. before subjecting to EMSA analysis. Where appropriate, bands corresponding to Stat3:DNA complexes were scanned and quantified for each concentration of compound using ImageJ and plotted as percent of control (DMSO) against concentration of compound, from which the IC50 values were derived.

Signal transducer and activator of transcription 3, sequence (P40763 whole entry): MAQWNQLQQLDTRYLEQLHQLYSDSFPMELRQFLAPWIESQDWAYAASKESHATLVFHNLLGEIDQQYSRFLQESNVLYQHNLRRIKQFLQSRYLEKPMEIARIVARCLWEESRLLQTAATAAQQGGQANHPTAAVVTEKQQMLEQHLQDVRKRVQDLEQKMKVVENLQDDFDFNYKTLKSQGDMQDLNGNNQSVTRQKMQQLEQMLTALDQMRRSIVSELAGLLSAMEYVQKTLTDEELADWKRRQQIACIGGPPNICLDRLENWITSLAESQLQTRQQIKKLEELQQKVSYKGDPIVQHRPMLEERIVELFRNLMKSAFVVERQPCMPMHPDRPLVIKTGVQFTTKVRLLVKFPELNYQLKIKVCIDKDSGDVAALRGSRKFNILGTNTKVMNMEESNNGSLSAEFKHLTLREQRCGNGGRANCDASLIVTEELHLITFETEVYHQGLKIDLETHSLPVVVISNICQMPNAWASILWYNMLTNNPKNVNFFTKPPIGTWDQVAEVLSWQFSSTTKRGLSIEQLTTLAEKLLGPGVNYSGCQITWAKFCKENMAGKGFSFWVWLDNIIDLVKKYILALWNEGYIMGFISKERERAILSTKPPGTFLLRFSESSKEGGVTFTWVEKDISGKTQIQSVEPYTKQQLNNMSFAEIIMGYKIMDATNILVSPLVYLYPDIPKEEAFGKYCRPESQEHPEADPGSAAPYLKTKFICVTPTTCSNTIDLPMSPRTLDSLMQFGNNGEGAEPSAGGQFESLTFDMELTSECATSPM

By pIC50 is commonly meant −log10 of the IC50, conventionally taken in molar units. The compound `O=C(O)c1ccc(N(Cc2cnc(C3CCCCC3)cn2)C(=O)[C@H]2CCN2S(=O)(=O)c2c(F)c(F)c(F)c(Cl)c2F)cc1O` [US11299480, Example 152] had a pIC50 of 6.37.
